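Grown in 96-well plates, cells were treated for 48 hours with each compound at five concentrations. Insufficient inhibition: endpoint recorded as highest concentration tested. GI50: concentration for 50% inhibition of growth.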 Activity calls are given as the source filed them. Cut-off read from the data, not from the text of the source: active = GI50 up to about 1.1 µM and inactive = higher.
Experiments:
Experiment in all cases: DTP human tumour cell line panel, 48 h
786-0 = tested on: 786-0
ACHN = tested on: ACHN
HCC 2998 = tested on: HCC 2998
HOP-92 = tested on: HOP-92
Hs-578T = tested on: Hs-578T
K562 = tested on: K562
KM12 = tested on: KM12
LOX IMVI = tested on: LOX IMVI
MCF7 = tested on: MCF7
MDA-N = tested on: MDA-N
MOLT-4 = tested on: MOLT-4
NCI-H522 = tested on: NCI-H522
OVCAR-3 = tested on: OVCAR-3
SF-539 = tested on: SF-539
SK-OV-3 = tested on: SK-OV-3
SNB-19 = tested on: SNB-19
U-251 = tested on: U-251
UACC-257 = tested on: UACC-257
UACC-62 = tested on: UACC-62
A498 = tested on: A498

Measured: GI50

COc1cc(NCc2ccc3oc(=O)c(-c4ccccc4)nc3c2)cc(OC)c1OC
inactive: 786-0 > 10 µM | ACHN > 10 µM | HCC 2998 > 10 µM | HOP-92 > 10 µM | Hs-578T > 10 µM | K562 > 10 µM | KM12 > 10 µM | LOX IMVI > 10 µM | MCF7 > 10 µM | MDA-N > 10 µM | MOLT-4 > 10 µM | NCI-H522 > 10 µM | OVCAR-3 > 10 µM | SF-539 > 10 µM | SK-OV-3 > 10 µM | SNB-19 > 10 µM | U-251 > 10 µM | UACC-257 > 10 µM | UACC-62 > 10 µM

COc1cc(C[C@H]2C(=O)OC[C@@H]2Cc2ccc(OC)c(OC)c2)cc(OC)c1
inactive: 786-0 > 100 µM | ACHN 31.2 µM | HCC 2998 > 100 µM | HOP-92 92.9 µM | Hs-578T > 100 µM | K562 31.5 µM | KM12 51.6 µM | LOX IMVI 18.5 µM | MCF7 34.2 µM | MDA-N 58.5 µM | MOLT-4 27.2 µM | NCI-H522 64.3 µM | OVCAR-3 59.3 µM | SF-539 > 100 µM | SK-OV-3 > 100 µM | SNB-19 > 100 µM | U-251 70.8 µM | UACC-257 51.5 µM | UACC-62 62.8 µM

CN=C(n1ccnc1)n1ccnc1
inactive: 786-0 > 100 µM | A498 > 100 µM | HCC 2998 > 100 µM | Hs-578T > 100 µM | K562 > 100 µM | KM12 > 100 µM | LOX IMVI > 100 µM | MCF7 > 100 µM | MDA-N > 100 µM | MOLT-4 > 100 µM | NCI-H522 > 100 µM | OVCAR-3 > 100 µM | SF-539 > 100 µM | SK-OV-3 > 100 µM | SNB-19 > 100 µM | U-251 > 100 µM | UACC-257 > 100 µM | UACC-62 > 100 µM

Cc1ccc(/C=N/Nc2nc3ccccc3s2)s1
inactive: 786-0 66.5 µM | ACHN > 100 µM | HCC 2998 55.6 µM | HOP-92 > 100 µM | Hs-578T 66.1 µM | K562 31.5 µM | KM12 49.1 µM | LOX IMVI > 100 µM | MCF7 5.53 µM | MDA-N > 100 µM | MOLT-4 > 100 µM | NCI-H522 > 100 µM | OVCAR-3 34.9 µM | SF-539 91.8 µM | SK-OV-3 58.7 µM | SNB-19 51.9 µM | U-251 81.1 µM | UACC-257 > 100 µM | UACC-62 74.6 µM

O=C(CN1CCN(c2ccccc2)CC1)c1ccc2[nH]c(=O)oc2c1
inactive: 786-0 > 100 µM | A498 > 100 µM | ACHN > 100 µM | Hs-578T 70 µM | K562 > 100 µM | KM12 > 100 µM | LOX IMVI > 100 µM | MCF7 > 100 µM | MDA-N > 100 µM | MOLT-4 > 100 µM | OVCAR-3 > 100 µM | SF-539 36.5 µM | SK-OV-3 > 100 µM | U-251 35.6 µM | UACC-257 > 100 µM | UACC-62 > 100 µM

COP(=O)(CC(=O)C1OC(OCc2ccccc2)C(OCc2ccccc2)C(OCc2ccccc2)C1OCc1ccccc1)OC (configuration not stated)
inactive: 786-0 12.5 µM | ACHN 5.71 µM | HCC 2998 3.32 µM | HOP-92 10.4 µM | Hs-578T 23.9 µM | K562 4.31 µM | KM12 4.16 µM | LOX IMVI 11 µM | MCF7 4.74 µM | MDA-N 4.27 µM | MOLT-4 2.69 µM | NCI-H522 9.51 µM | OVCAR-3 8.87 µM | SF-539 12.8 µM | SK-OV-3 27.8 µM | SNB-19 11.4 µM | U-251 6.37 µM | UACC-257 6.81 µM | UACC-62 4.12 µM

Nc1n[nH]c2c(C(=O)Nc3ccc(Cl)cc3)c(N)n(N)c(=O)c12
inactive: 786-0 > 100 µM | A498 > 100 µM | HCC 2998 > 100 µM | Hs-578T > 100 µM | K562 > 100 µM | KM12 > 100 µM | LOX IMVI > 100 µM | MCF7 > 100 µM | MDA-N > 100 µM | MOLT-4 > 100 µM | NCI-H522 > 100 µM | OVCAR-3 > 100 µM | SF-539 > 100 µM | SK-OV-3 > 100 µM | SNB-19 > 100 µM | U-251 > 100 µM | UACC-257 > 100 µM | UACC-62 > 100 µM

CN1CCN(c2nc3c(c(=O)n(C)c(=O)n3C)n2C)CC1
inactive: 786-0 > 100 µM | A498 > 100 µM | ACHN > 100 µM | HCC 2998 > 100 µM | HOP-92 > 100 µM | Hs-578T > 100 µM | K562 > 100 µM | KM12 > 100 µM | LOX IMVI > 100 µM | MCF7 > 100 µM | MDA-N > 100 µM | NCI-H522 > 100 µM | OVCAR-3 > 100 µM | SK-OV-3 > 100 µM | SNB-19 > 100 µM | U-251 > 100 µM | UACC-257 > 100 µM | UACC-62 > 100 µM

Cc1cc2[n-][n+]3ncc(-c4ccccc4)n3c2cc1[N+](=O)[O-]
inactive: 786-0 > 100 µM | A498 > 100 µM | ACHN > 100 µM | HOP-92 > 100 µM | Hs-578T > 100 µM | K562 > 100 µM | KM12 > 100 µM | LOX IMVI > 100 µM | MCF7 > 100 µM | MDA-N > 10 µM | MOLT-4 > 100 µM | NCI-H522 > 100 µM | OVCAR-3 > 100 µM | SF-539 > 100 µM | SK-OV-3 > 100 µM | SNB-19 > 100 µM | U-251 > 100 µM | UACC-257 > 100 µM | UACC-62 > 100 µM

Cc1c(S(=O)(=O)/N=C(\NN)Nc2ccc(Cl)cc2)sc2ccc(Cl)cc12
inactive: 786-0 17.5 µM | A498 15.8 µM | ACHN 16.3 µM | HOP-92 15.1 µM | Hs-578T 36.6 µM | K562 24 µM | KM12 15.3 µM | LOX IMVI 18.6 µM | MCF7 14.9 µM | MDA-N 15.6 µM | MOLT-4 13.1 µM | NCI-H522 17.3 µM | OVCAR-3 16.6 µM | SF-539 14.3 µM | SK-OV-3 19.7 µM | SNB-19 23.3 µM | U-251 16.3 µM | UACC-257 18.2 µM | UACC-62 14.2 µM

O=C1NC(N2CCCC(CO)C2)=N/C1=C\c1ccc(O)cc1 (configuration not stated)
inactive: 786-0 > 100 µM | ACHN > 100 µM | HCC 2998 > 100 µM | HOP-92 > 100 µM | Hs-578T > 100 µM | K562 > 100 µM | KM12 > 100 µM | LOX IMVI > 100 µM | MCF7 > 100 µM | MDA-N > 100 µM | MOLT-4 > 100 µM | NCI-H522 > 100 µM | OVCAR-3 > 100 µM | SF-539 > 100 µM | SK-OV-3 > 100 µM | SNB-19 > 100 µM | U-251 > 100 µM | UACC-257 > 100 µM | UACC-62 > 100 µM

CCCNC(=O)Cn1c(C)cc2ccccc21
inactive: 786-0 > 100 µM | ACHN > 100 µM | HCC 2998 > 100 µM | HOP-92 > 100 µM | Hs-578T > 100 µM | K562 > 100 µM | KM12 > 100 µM | LOX IMVI > 100 µM | MCF7 > 100 µM | MDA-N > 100 µM | MOLT-4 > 100 µM | NCI-H522 > 100 µM | OVCAR-3 > 100 µM | SF-539 > 100 µM | SK-OV-3 > 100 µM | SNB-19 > 100 µM | U-251 > 100 µM | UACC-257 > 100 µM | UACC-62 > 100 µM

OC1CN=C2c3ccccc3C(O)(c3ccc(Cl)cc3)N2C1 (configuration not stated)
inactive: 786-0 55 µM | ACHN > 100 µM | HCC 2998 17.1 µM | HOP-92 22 µM | Hs-578T 88.5 µM | K562 35.6 µM | KM12 52.4 µM | LOX IMVI 45.4 µM | MCF7 48.2 µM | MDA-N 35.4 µM | MOLT-4 31 µM | NCI-H522 26.2 µM | OVCAR-3 > 100 µM | SF-539 32.2 µM | SK-OV-3 69.5 µM | SNB-19 60 µM | U-251 66.7 µM | UACC-62 45.4 µM

BC(=O)NC(CC(C)C)C(=O)NC1c2ccsc2C(=O)C1O.CN(C)C (configuration not stated)
inactive: 786-0 > 100 µM | A498 > 100 µM | ACHN > 100 µM | HCC 2998 > 100 µM | Hs-578T > 100 µM | K562 > 100 µM | KM12 > 100 µM | LOX IMVI > 100 µM | MCF7 > 100 µM | MDA-N > 100 µM | MOLT-4 > 100 µM | NCI-H522 > 100 µM | SF-539 > 100 µM | SK-OV-3 > 100 µM | SNB-19 > 100 µM | U-251 > 100 µM | UACC-257 > 100 µM | UACC-62 > 100 µM

O=c1c(Cc2ccccc2Cc2c(O)oc3ccccc3c2=O)c(O)oc2ccccc12
inactive: 786-0 > 100 µM | A498 > 100 µM | ACHN > 100 µM | HOP-92 > 100 µM | Hs-578T > 100 µM | K562 > 100 µM | KM12 > 100 µM | LOX IMVI > 100 µM | MCF7 > 100 µM | MDA-N > 100 µM | MOLT-4 > 100 µM | NCI-H522 > 100 µM | OVCAR-3 > 100 µM | SF-539 > 100 µM | SK-OV-3 > 100 µM | SNB-19 > 100 µM | U-251 > 100 µM | UACC-257 > 100 µM | UACC-62 > 100 µM

Reference: ChEMBL document CHEMBL1201862, “PubChem BioAssay data set” (2004)
